Results reported in publication PMC11945486, “TAS1R2/TAS1R3 Single-Nucleotide Polymorphisms Affect Sweet Taste Receptor Activation by Sweeteners: The SWEET Project” (Nutrients, 2025).
No end group written: not given here.

T1: human TAS1R2-I595T/TAS1R3-WT (Homo sapiens, UniProt Q7RTX0+Q8TE23, I595T)
T1 construct: expressed in transfected cells; host or cells: HEK293T-Gα16gust44
T1 sequence (Q8TE23 20-839 I595T): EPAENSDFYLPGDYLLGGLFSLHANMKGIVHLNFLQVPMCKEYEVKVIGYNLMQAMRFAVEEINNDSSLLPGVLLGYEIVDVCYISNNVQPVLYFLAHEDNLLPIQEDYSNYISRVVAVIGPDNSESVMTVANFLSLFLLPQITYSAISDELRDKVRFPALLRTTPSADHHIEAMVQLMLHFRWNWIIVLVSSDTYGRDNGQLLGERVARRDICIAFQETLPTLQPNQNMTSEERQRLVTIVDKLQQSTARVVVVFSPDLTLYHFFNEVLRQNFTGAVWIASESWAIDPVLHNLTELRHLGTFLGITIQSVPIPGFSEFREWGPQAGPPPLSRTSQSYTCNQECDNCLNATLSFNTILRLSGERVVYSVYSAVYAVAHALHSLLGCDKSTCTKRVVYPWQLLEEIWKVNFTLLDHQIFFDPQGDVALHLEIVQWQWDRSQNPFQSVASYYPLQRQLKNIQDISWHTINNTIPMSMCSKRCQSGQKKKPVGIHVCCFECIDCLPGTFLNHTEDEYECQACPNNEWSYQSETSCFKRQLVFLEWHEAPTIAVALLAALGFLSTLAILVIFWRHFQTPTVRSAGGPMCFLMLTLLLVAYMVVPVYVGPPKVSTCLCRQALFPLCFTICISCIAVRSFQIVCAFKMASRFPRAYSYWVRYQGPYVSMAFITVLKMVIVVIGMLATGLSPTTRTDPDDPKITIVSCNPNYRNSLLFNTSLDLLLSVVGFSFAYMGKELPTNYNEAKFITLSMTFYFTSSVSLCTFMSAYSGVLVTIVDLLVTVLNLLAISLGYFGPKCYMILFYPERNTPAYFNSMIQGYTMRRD
T1 sequence (Q7RTX0 21-852): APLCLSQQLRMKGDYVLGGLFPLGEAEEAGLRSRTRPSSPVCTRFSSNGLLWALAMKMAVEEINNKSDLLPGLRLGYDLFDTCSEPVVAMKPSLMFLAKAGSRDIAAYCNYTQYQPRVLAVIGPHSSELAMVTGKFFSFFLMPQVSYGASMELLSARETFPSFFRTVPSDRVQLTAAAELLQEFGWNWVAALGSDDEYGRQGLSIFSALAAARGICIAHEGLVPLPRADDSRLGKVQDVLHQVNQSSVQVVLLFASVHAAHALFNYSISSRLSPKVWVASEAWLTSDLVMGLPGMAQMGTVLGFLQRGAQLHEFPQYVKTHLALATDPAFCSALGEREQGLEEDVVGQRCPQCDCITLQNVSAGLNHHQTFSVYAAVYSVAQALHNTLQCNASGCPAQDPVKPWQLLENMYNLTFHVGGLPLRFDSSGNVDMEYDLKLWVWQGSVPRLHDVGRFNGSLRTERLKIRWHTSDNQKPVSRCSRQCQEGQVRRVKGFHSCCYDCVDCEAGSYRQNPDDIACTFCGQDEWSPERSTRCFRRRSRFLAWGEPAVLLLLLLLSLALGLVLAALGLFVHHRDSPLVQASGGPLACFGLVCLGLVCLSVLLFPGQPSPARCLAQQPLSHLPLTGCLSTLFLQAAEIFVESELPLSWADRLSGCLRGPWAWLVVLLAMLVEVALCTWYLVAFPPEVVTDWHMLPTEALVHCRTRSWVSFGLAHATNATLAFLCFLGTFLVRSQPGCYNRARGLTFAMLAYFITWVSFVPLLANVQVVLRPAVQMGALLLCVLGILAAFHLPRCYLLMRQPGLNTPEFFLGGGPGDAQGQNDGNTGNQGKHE

B1: thaumatin (protein)
chain: ATFEIVNRCSYTVWAAASKGDAALDAGGRQLNSGESWTINVEPGTKGGKIWARTDCYFDDSGSGICKTGDCGGLLRCKRFGRPPTTLAEFSLNQYGKDYIDISNIKGFNVPMDFSPTTRGCRGVRCAADIVGQCPAKLKAPGGGCNDACTVFQTSEYCCTTGKCGPTEYSRFFKRLCPDAFSYVLDKPTTVTCPGSSNYRVTFCPTA
modifications: Eight disulfides
notes: sweet-tasting plant protein, E957

Target: T1, human TAS1R2-I595T/TAS1R3-WT
Assay: Calcium mobilisation assay, TAS1R2 variant I595T with TAS1R3-WT
Assay type: cell-based
Settings: "-": no activation; for Max ΔF/F0: maximal signal amplitude
From the text: The coding sequences for TAS1R2 and TAS1R3 were commercially synthesised, and the human codon was optimised for expression in human cells. The coding sequences of human TAS1R2 and TAS1R3 were subcloned and inserted into the mammalian expression vectors pcDNA6/myc-HisA and pcDNA4/myc-HisA (Invitrogen; Thermo Fisher Scientific; Illkirch, France) between the EcoRI and NotI restriction sites, generating the plasmids pcDNA6-TAS1R2 and pcDNA4-TAS1R3, respectively. To increase protein expression in mammalian cells, an upstream start codon was used, which was a sequence called MAX, corresponding to the QBI SP163 element also described in pcDNA4-HisMax (Invitrogen; Thermo Fisher Scientific; Illkirch, France). To measure the expression level of the receptor by immunohistochemistry, we used the FLAG sequence ([…]) in the C-terminal position, which encodes the FLAG tag epitope. SNP variants of TAS1R2 and TAS1R3 were constructed based on […], respectively, using site-directed mutagenesis (Genewiz; Leipzig, Germany).
The HEK293T cells were kindly provided by Jay P. Slack (Givaudan Flavors Corporation; Cincinnati, OH, USA). HEK293T cells stably transfected with Gα16gust44 [43, 67] were seeded in poly-D-lysine-coated clear-bottom black 96-well plates (0.35 × 10^5 cells/well) in high-glucose DMEM supplemented with 2 mM GlutaMAX, 10% dialysed foetal bovine serum with penicillin/streptomycin and G418 (400 μg/mL) at 37 °C and 6.3% CO2 in a humidified atmosphere as previously reported. […] As a negative control, HEK293T cells were mock-transfected with the empty expression vector. After a further 24 h of incubation, the HEK293T cells were washed with C1 buffer (130 mM NaCl, 5 mM KCl, 10 mM HEPES pH 7.4 and 2 mM CaCl2). The 96-well plates containing the cells were then stimulated with sweet-tasting compounds. […] Different concentration ranges were tested depending on the sweet compound injected. The Ca^2+ changes were expressed as fractional changes in fluorescent light intensity: ΔF/F = (F − F0)/F0, where F was the fluorescent light intensity at each point, and F0 was the value of emitted fluorescent light prior to stimulus application. To calculate dose–response relationships, the changes in fluorescence upon stimulus application were averaged, mock-subtracted and baseline-corrected. The dose–response data obtained were adjusted using a 4-parameter logistic equation. The half-maximal effective concentrations (EC50 values) and maximal signal amplitudes were calculated using SigmaPlot software (version 15.0) (Systat Software; San Jose, CA, USA).
For in vitro calcium mobilisation assay performed on hTAS1R2-SNPs, hTAS1R3-SNPs and mTAS1R3-I60T, 6 to 7 concentrations were tested for each sweet compound, plus buffer alone. All concentration–receptor combinations were measured in duplicate, and each experiment was repeated at least 4 times (8 wells/concentration). Results were expressed for each concentration as ΔF/F mean ± SEM and represented as dose–response curves.

Row | Molecule | EC50 [µM] | R1 = Variant EC50/WT EC50 | Max ΔF/F0
1 | CC1=CC(=O)NS(=O)(=O)O1 [Acesulfame K, acesulfame K] | 300 ± 139 | 0.4 | 0.02 ± 0.01
2 | O=S(=O)(O)NC1CCCCC1 [Cyclamate, cyclamate] | 2030 ± 102 | – | –
3 | C[C@H](CC[C@@H](O[C@@H]1O[C@H](CO[C@@H]2O[C@H](CO)[C@@H](O)[C@H](O)[C@H]2O)[C@@H](O)[C@H](O)[C@H]1O[C@@H]1O[C@H](CO)[C@@H](O)[C@H](O)[C@H]1O)C(C)(C)O)[C@H]1CC[C@@]2(C)[C@@H]3CC=C4[C@@H](CC[C@H](O[C@@H]5O[C@H](CO[C@@H]6O[C@H](CO)[C@@H](O)[C@H](O)[C@H]6O)[C@@H](O)[C@H](O)[C@H]5O)C4(C)C)[C@]3(C)[C@H](O)C[C@]12C [Mogroside V, mogroside V] | 31.4 ± 6 | 1.8 | 0.27 ± 0.03
4 | COc1ccc(CCC(=O)c2c(O)cc(O[C@@H]3O[C@H](CO)[C@@H](O)[C@H](O)[C@H]3O[C@@H]3O[C@@H](C)[C@H](O)[C@@H](O)[C@H]3O)cc2O)cc1O [NHDC, neohesperidin dihydrochalcone] | 70.3 ± 1.3 | 0.9 | 0.09 ± 0.01
5 | COC(=O)[C@H](Cc1ccccc1)NC(=O)[C@H](CC(=O)O)NCCC(C)(C)C [Neotame] | 1.27 ± 0.18 | 1.5 | 0.09 ± 0.01
6 | C=C(C)[C@@H]1CC=C(/C=N/O)CC1 [Perillartine, perillartine] | 53.2 ± 1.6 | 3.0 | 0.51 ± 0.01
7 | C=C1C[C@@]23CC[C@H]4[C@@](C)(CCC[C@@]4(C)C(=O)O[C@@H]4O[C@H](CO)[C@@H](O)[C@H](O[C@@H]5O[C@H](CO)[C@@H](O)[C@H](O)[C@H]5O)[C@H]4O[C@@H]4O[C@H](CO)[C@@H](O)[C@H](O)[C@H]4O)[C@@H]2CC[C@]1(O[C@@H]1O[C@H](CO)[C@@H](O)[C@H](O[C@@H]2O[C@H](CO)[C@@H](O)[C@H](O)[C@H]2O)[C@H]1O[C@@H]1O[C@H](CO)[C@@H](O)[C@H](O)[C@H]1O)C3 [Rebaudioside M, rebaudioside M] | 35.8 ± 4 | 2.1 | 0.23 ± 0.01
8 | OC[C@H]1O[C@H](O[C@]2(CCl)O[C@H](CCl)[C@@H](O)[C@@H]2O)[C@H](O)[C@@H](O)[C@H]1Cl [Sucralose] | 108 ± 5 | 1.2 | 0.08 ± 0.02
9 | brazzein (QDKCKKVYENYPVSKCQLANQCNYDCKLDKHARSGECFYDEKRNLQCICDYCEY; ends and bridges not checked; cysteine pairing not given here; UniProt P56552 1-54, looked up) [sweet-tasting protein obtained by recombinant production using the yeast Pichia pastoris] | – | 10.8 | 0.13 ± 0.02
10 | thaumatin | – | 3.7 | 0.39 ± 0.01
11 | B1 | 27.8 ± 1.4 | – | –
